Key:
[1] = Inhibition of human HSP90beta expressed in yeast assessed as growth inhibition of host after 72 hrs
[2] = Inhibition of human HSP90alpha expressed in yeast assessed as growth inhibition of host after 72 hrs

COCC(=O)Nc1c(C(=O)OC)n(CCC(C)C)c2ncc(NC(C)CCC=C(C)C)cc12 (configuration not stated)
IC50 [1]: 120 µM
IC50 [2]: 308 µM
